Laboratory results published in the supplement of paper PMC13380429.

Columns and labels:
Conditions in all cases: 72 h
Caco-2 [1] = test: cell viability relative to DMSO; higher = less toxic
Calu-3 [2] = test: as above
HepG2 [3] = test: as above
U2OS [4] = test: as above
Vero E6 [5] = test: as above
Caco-2 [6] = test: relative viability EC50 (midpoint between 100% and the lowest measured viability); higher = less toxic
Calu-3 [7] = test: as above
HepG2 [8] = test: as above
U2OS [9] = test: as above
Vero E6 [10] = test: as above
Caco-2 [11] = test: drug sensitivity score (DSS) for viability; higher = more toxic; extreme values may be limits of the assay
Calu-3 [12] = test: as above
HepG2 [13] = test: as above
U2OS [14] = test: as above
Vero E6 [15] = test: as above

Compound	cell viability (Caco-2 [1]; 1 nM) [%]	cell viability (Caco-2 [1]; 10 nM) [%]	cell viability (Caco-2 [1]; 100 nM) [%]	cell viability (Caco-2 [1]; 1000 nM) [%]	cell viability (Caco-2 [1]; 10000 nM) [%]	cell viability (Calu-3 [2]; 1 nM) [%]	cell viability (Calu-3 [2]; 10 nM) [%]	cell viability (Calu-3 [2]; 100 nM) [%]	cell viability (Calu-3 [2]; 1000 nM) [%]	cell viability (Calu-3 [2]; 10000 nM) [%]	cell viability (HepG2 [3]; 1 nM) [%]	cell viability (HepG2 [3]; 10 nM) [%]	cell viability (HepG2 [3]; 100 nM) [%]	cell viability (HepG2 [3]; 1000 nM) [%]	cell viability (HepG2 [3]; 10000 nM) [%]	cell viability (U2OS [4]; 1 nM) [%]	cell viability (U2OS [4]; 10 nM) [%]	cell viability (U2OS [4]; 100 nM) [%]	cell viability (U2OS [4]; 1000 nM) [%]	cell viability (U2OS [4]; 10000 nM) [%]	cell viability (Vero E6 [5]; 1 nM) [%]	cell viability (Vero E6 [5]; 10 nM) [%]	cell viability (Vero E6 [5]; 100 nM) [%]	cell viability (Vero E6 [5]; 1000 nM) [%]	cell viability (Vero E6 [5]; 10000 nM) [%]	relative viability EC50 (Caco-2 [6]) [µM]	relative viability EC50 (Calu-3 [7]) [µM]	relative viability EC50 (HepG2 [8]) [µM]	relative viability EC50 (U2OS [9]) [µM]	relative viability EC50 (Vero E6 [10]) [µM]	drug sensitivity score (Caco-2 [11])	drug sensitivity score (Calu-3 [12])	drug sensitivity score (HepG2 [13])	drug sensitivity score (U2OS [14])	drug sensitivity score (Vero E6 [15])
NS(=O)(=O)c1cccc2c1c([N+](=O)[O-])cc1nc(O)c(O)nc12 [NBQX]	102	99.3	97	95.6	102	101	85.9	92.4	93.9	103	101	105	101	92.7	106	104	106	98.5	103	102	103	100	101	101	99.8	> 10	> 10	> 10	> 10	> 10	0	0	0	0	0
Nc1ncc2c(n1)CC(c1ccco1)CC2=O (stereo not given) [NKY-80]	97	98.3	102	86.4	97.6	106	96.1	110	101	94.8	103	105	109	105	91	96.4	97.3	99.7	97.6	100	101	104	100	97.7	101	> 10	> 10	> 10	> 10	> 10	0	0	0	0	0
NC(=O)CN1CC[C@@H](NC(=O)[C@@H]2CCCN2)C1=O [PAOPA]	100	99.7	100	134	96.7	98.1	99.6	106	94.2	106	89.1	109	97	100	108	100	102	102	105	95.2	95.4	97.8	92.5	101	104	> 10	> 10	> 10	> 10	> 10	0	0	0	0	0
N#Cc1ccccc1-c1cc(-c2ccccn2)cn(-c2ccccc2)c1=O [Perampanel]	90.5	106	97.5	93.6	104	90.5	97.5	96.5	103	95.6	98.7	108	104	105	119	94	94	99.6	96.2	99.7	92.1	101	95.4	96.9	92.4	> 10	> 10	> 10	> 10	> 10	0	0	0	0	0
CC[N+](CC)(CC)CC(=O)Nc1c(C)cccc1C [QX-314]	91.8	93.4	97	102	95.6	102	93.6	89.1	96.9	89.2	95.3	104	92.6	94.4	95.7	103	96.9	102	95.7	101	95.9	99.2	93.7	97.8	93.6	> 10	> 10	> 10	> 10	> 10	0	0	0	0	0
CC1(C)CC(=O)c2c(C(F)(F)F)nn(-c3ccc(C(N)=O)c(N[C@H]4CC[C@H](OC(=O)CN)CC4)c3)c2C1 [SNX-5422]	90.2	95.8	85.4	37.3	35.2	85.3	93.9	80.9	40.5	38.7	101	92.9	15.8	0.9	1.9	92	105	68.9	3.4	3.4	95.6	94	97.5	47.3	25.8	0.189	0.161	0.0395	0.135	0.612	13.5	13.1	28.8	21.9	10.6
O=C(Nc1ccccc1-c1cn2c(CN3CCNCC3)csc2n1)c1cnc2ccccc2n1 [SRT1720]	88.6	93.3	99.7	98.4	5.4	102	101	103	102	0.9	94	94.4	102	91.6	0.3	102	99.7	98.1	102	0.2	98.2	97.7	97.7	94.3	0.1	3.05	3.3	2.47	3.3	2.72	5.5	5.3	6.9	5.4	6.4
N#Cc1c(N(CC(=O)O)CC(=O)O)sc(C(=O)O)c1CC(=O)O [Strontium Ranelate]	93	102	93.6	106	91.2	106	87.9	98.7	104	104	93.7	94.9	103	100	108	97.3	102	100	101	96.7	96.7	101	100	97.6	99.8	> 10	> 10	> 10	> 10	> 10	0	0	0	0	0
CCOc1cncc(/C=C/CCNC)c1 [TC2559]	97.9	99.4	100	108	102	87.6	98.9	98.2	95.9	109	100	93.1	110	96.7	117	101	102	97	101	104	94.1	94.5	89.2	90.2	110	> 10	> 10	> 10	> 10	> 10	0	0	0	0	0
CC(C)(C)c1ccc(C(=O)Nc2cn3cc(-n4ccnc4)ccc3n2)cc1 [TC-ASK-10]	96.1	101	99.3	109	81.8	97.9	95.6	105	105	93.9	87.1	102	98.4	104	77.2	96.4	97.3	99.5	98.8	91.6	93.2	103	93.8	95.5	99.1	> 10	> 10	> 10	> 10	> 10	0.2	0	0.6	0	0
CC(C)c1c(NC(=O)Nc2ccc(Cl)cc2)c(=O)n(-c2ccccc2)n1C [TC-FPR-43]	98.8	105	102	98.6	99.2	106	102	100	105	96.5	90.9	105	101	94.3	94.5	97.1	103	99.3	107	93.2	96.7	96.8	94.2	96.9	92.4	> 10	> 10	> 10	> 10	> 10	0	0	0	0	0
Cc1cccc(C)c1-n1c(=O)c2cnc(Nc3ccc(N4CCN(C)CC4)cc3)nc2n2c3ccccc3nc12 [TC-S-7003]	88.3	87.9	88.3	66.1	11.6	106	101	95.6	70.5	5.2	98	101	82	58.6	9	97	98.2	91.8	56.5	0.4	96.9	97.4	71.7	54.6	10.6	1.31	1.4	0.915	1.15	0.527	8.7	9.4	10.5	10.5	12.6
COc1ncc2cc(C(=O)Nc3cc(C(=O)NCc4cccc(Cl)c4)ccc3Cl)c(=O)[nH]c2n1 [TC-S-7004]	111	107	99.6	98.6	95	94.8	94.8	105	104	104	98.6	97.4	100	87.7	101	98.8	102	103	103	99.1	104	101	102	100	95	> 10	> 10	> 10	> 10	> 10	0	0	0	0	0
CCCCCCC(=O)OC1CC(C)(C)NC(C)(C)C1 [TMPH]	106	99.4	99.3	103	102	102	89.7	96	108	98.7	109	93.5	99.5	92.9	106	99.7	101	98.9	99.6	99.1	99	96.4	101	95.2	98.4	> 10	> 10	> 10	> 10	> 10	0	0	0	0	0
CC(=O)N[C@@H](CSC/C=C(\C)CC/C=C(\C)CCC=C(C)C)C(=O)O [acetyl-farnesyl-cysteine]	92.9	98.1	100	101	108	108	84.9	86.6	99.9	101	90.9	92.5	99.8	102	105	95.7	96.9	101	99	101	93.9	107	93	99.6	101	> 10	> 10	> 10	> 10	> 10	0	0	0	0	0
